Assay results as given in PubChem BioAssay (NCI).
Several values for one entry are separate records, joined by “and”; a condition that tells them apart may be missing. Identical values can stand only once.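 Compound exposure: 48 hours, 5 concentrations, 96-well plates. The concentration for 50% growth inhibition is given as GI50. TGI marks complete inhibition of growth.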

Experiments:
Assay in all cases: DTP human tumour cell line panel, 48 h
786-0 renal = tested on: 786-0 renal
CAKI-1 renal = tested on: CAKI-1 renal
COLO 205 colon = tested on: COLO 205 colon
EKVX NSCLC = tested on: EKVX NSCLC
HL-60(TB) leukemia = tested on: HL-60(TB) leukemia
M14 melanoma = tested on: M14 melanoma
NCI-H522 lung = tested on: NCI-H522 lung
SN12C renal = tested on: SN12C renal
SR leukemia = tested on: SR leukemia
UACC-62 melanoma = tested on: UACC-62 melanoma

Structure (SMILES) | GI50 (786-0 renal) | TGI (786-0 renal) | GI50 (CAKI-1 renal) | TGI (CAKI-1 renal) | GI50 (COLO 205 colon) | TGI (COLO 205 colon) | GI50 (EKVX NSCLC) | TGI (EKVX NSCLC) | GI50 (HL-60(TB) leukemia) | TGI (HL-60(TB) leukemia) | GI50 (M14 melanoma) | TGI (M14 melanoma) | GI50 (NCI-H522 lung) | GI50 (SN12C renal) | TGI (SN12C renal) | GI50 (SR leukemia) | TGI (SR leukemia) | GI50 (UACC-62 melanoma) | TGI (UACC-62 melanoma) | TGI (NCI-H522 lung)
CCN1C(=O)N(CC)C2C1NN=c1s/c(=C\c3ccco3)c(=O)n12 (stereo not given) | 0.571 µM | > 100 µM | 0.468 µM | > 89.7 µM | 0.403 µM | > 23.6 µM | 1.7 µM | > 100 µM | 0.284 µM | 6 µM | 0.415 µM | > 35.5 µM | 0.33 µM | 0.941 µM | > 100 µM | 0.196 µM | > 100 µM | 0.446 µM | > 100 µM | –
N=C(N)SCc1c2ccccc2c(CSC(=N)N)c2ccccc12 | 9.35 µM | 24 µM | 7.28 µM | 27.7 µM | 2.75 µM | 14.1 µM | 13.4 µM | 51.6 µM | 4.06 µM | 23.3 µM | 10.9 µM | 25.5 µM | 3.23 µM | 3 µM | 25.7 µM | 0.408 µM | 3.03 µM | 3.59 µM | 20.3 µM | 30.7 µM
O=C(OC1CCC2OOC1O2)c1ccc([N+](=O)[O-])cc1 (stereo not given) | – | > 100 µM | – | > 100 µM | – | > 100 µM | – | > 100 µM | – | > 100 µM | – | > 100 µM | – | – | > 100 µM | – | > 100 µM | – | > 100 µM | > 100 µM
N#Cc1c(N2CCOCC2)nc(=S)[nH]c1-c1ccccc1 | 14.1 µM | > 100 µM | 9.29 µM | > 100 µM | 19 µM | > 100 µM | 20.2 µM | > 100 µM | 15.3 µM | > 100 µM | 19.9 µM | > 100 µM | 13.8 µM | 19 µM | > 100 µM | 29 µM | > 100 µM | 4.95 µM | > 100 µM | > 100 µM
COCCNc1ccc2c3c(cccc13)C(=O)N(CCN(C)C)C2=O | 9.13 µM | > 25 µM | 4.49 µM | 10.1 µM | 2.74 µM | 12.5 µM | 6.23 µM | > 25 µM | 6.78 µM | 14.4 µM | 7.98 µM | > 25 µM | 4.06 µM | 7.23 µM | > 25 µM | 3.67 µM | 11.4 µM | 4.54 µM | 14.4 µM | 12.4 µM
COc1cc(/C(=C2/O[C@@H]([C@H]3COC(C)(C)O3)[C@H]3OC(C)(C)O[C@@H]23)c2ccc3ccccc3c2)cc(OC)c1OC | 2.3 µM | 4.47 µM | 4.54 µM | > 100 µM | 6.97 µM | > 100 µM | 5.59 µM | > 100 µM | 74.9 µM | > 100 µM | 6.7 µM | 23.8 µM | 2.27 µM | 3.65 µM | > 100 µM | > 100 µM | > 100 µM | 7.13 µM | > 100 µM | 6.54 µM
COc1cc2c(cc1OC)CC(=O)Nc1cc(OC)c(OC)cc1CC2 | – | > 100 µM | – | > 100 µM | – | > 100 µM | – | > 100 µM | – | 64.3 µM | – | > 100 µM | – | – | > 100 µM | – | > 43.7 µM | – | > 100 µM | 47.5 µM
COC(=O)C1=COC(C)C2CN3CCc4c([nH]c5cc(OC)c(OC)cc45)C3CC12 (stereo not given) | – | > 100 µM | – | > 100 µM | – | > 100 µM and 86.6 µM | – | > 100 µM | – | 66.6 µM and 65.9 µM | – | > 100 µM | > 100 µM and 22 µM | – | > 100 µM | – | > 100 µM | – | > 100 µM | > 100 µM and 57.2 µM
CC1=CCCC2C1(C)CCC(C)C2(C)Cc1cc(O)ccc1O (stereo not given) | – | 20.3 µM | 14.1 µM | 27.2 µM and 22.5 µM | – | 34.9 µM and 32.1 µM | 7.71 µM | 22 µM and 18.8 µM | 2.67 µM | 15.2 µM and 4.61 µM | – | 29.5 µM | 3.65 µM | 13.1 µM | 29.3 µM and 23.8 µM | – | 24.7 µM | 13 µM | 28.7 µM and 24.5 µM | 12.7 µM and 8.37 µM
C#CCN(Cc1nc2cc(C(F)(F)F)ccc2nc1-c1ccccc1)c1ccc(C)cc1 | 15.5 µM | > 42.8 µM | 8.15 µM | > 43.4 µM | 2.79 µM | – | 29.1 µM | > 62.1 µM | 3.85 µM | > 74.5 µM | 5.4 µM | 32 µM | 3.3 µM | > 28.2 µM | > 59.9 µM | 16.1 µM | 41.3 µM | 7.32 µM | 27.9 µM | 26 µM
CC(N)(/C=C/c1ccccc1)C(=O)O (stereo not given) | – | > 100 µM | – | > 100 µM | – | > 100 µM | – | > 100 µM | – | > 100 µM | – | > 100 µM | – | – | > 100 µM | – | > 100 µM | – | > 100 µM | > 100 µM
CN1CCC2(CC1)NC(=O)c1c(c3ccc(Cl)c(Cl)c3n1C)C2C#N (stereo not given) | 10.1 µM | 24 µM | 4.31 µM | 21.3 µM | 1.8 µM | 3.83 µM | 12.4 µM | 41.1 µM | 3.91 µM | > 22.6 µM | 2.73 µM | 8.5 µM | 15.2 µM | 5.82 µM | 31.2 µM | 1.65 µM | 5.36 µM | 1.66 µM | 3.22 µM | 44.8 µM
